# Source: patent US20240269139A1, “COMPOUNDS FOR TARGETED PROTEIN DEGRADATION OF KINASES” (DANA-FARBER CANCER INSTITUTE, INC., priority 2020, published 2024)
# Read-outs that look alike come from different tables or passages of the source.
# Tests used:
# [1] = target: protein kinases (human kinome) (Homo sapiens, UniProt P11802); assay type: cell-based
# [2] = target: T1, protein kinases (human kinome) (Homo sapiens, UniProt Q9UEE5); assay type: cell-based; conditions: STK17A Q9UEE5
# T1 sequence (Q9UEE5 1-414): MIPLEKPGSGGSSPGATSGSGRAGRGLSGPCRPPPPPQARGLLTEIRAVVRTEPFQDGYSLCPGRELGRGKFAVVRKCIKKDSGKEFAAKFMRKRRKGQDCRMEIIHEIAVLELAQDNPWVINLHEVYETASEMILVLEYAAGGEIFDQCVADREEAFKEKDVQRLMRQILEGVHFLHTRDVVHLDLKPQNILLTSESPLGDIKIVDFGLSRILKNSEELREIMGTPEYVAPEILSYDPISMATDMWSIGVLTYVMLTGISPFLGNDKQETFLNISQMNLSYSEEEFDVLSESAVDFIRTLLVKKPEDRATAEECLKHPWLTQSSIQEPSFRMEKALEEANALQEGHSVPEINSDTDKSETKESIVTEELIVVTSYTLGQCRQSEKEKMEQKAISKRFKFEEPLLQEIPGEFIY
# [3] = target: protein kinases (human kinome) (Homo sapiens, UniProt Q9H0K1); assay type: cell-based; conditions: experiment wp134
# [4] = target: protein kinases (human kinome) (Homo sapiens, UniProt P51451); assay type: cell-based; conditions: for logFC BLK: BLK (P51451), direction down; for logFC of BLK (P51451): down
# Sequence of protein kinases (human kinome) (Homo sapiens, UniProt P51451) (P51451 whole entry): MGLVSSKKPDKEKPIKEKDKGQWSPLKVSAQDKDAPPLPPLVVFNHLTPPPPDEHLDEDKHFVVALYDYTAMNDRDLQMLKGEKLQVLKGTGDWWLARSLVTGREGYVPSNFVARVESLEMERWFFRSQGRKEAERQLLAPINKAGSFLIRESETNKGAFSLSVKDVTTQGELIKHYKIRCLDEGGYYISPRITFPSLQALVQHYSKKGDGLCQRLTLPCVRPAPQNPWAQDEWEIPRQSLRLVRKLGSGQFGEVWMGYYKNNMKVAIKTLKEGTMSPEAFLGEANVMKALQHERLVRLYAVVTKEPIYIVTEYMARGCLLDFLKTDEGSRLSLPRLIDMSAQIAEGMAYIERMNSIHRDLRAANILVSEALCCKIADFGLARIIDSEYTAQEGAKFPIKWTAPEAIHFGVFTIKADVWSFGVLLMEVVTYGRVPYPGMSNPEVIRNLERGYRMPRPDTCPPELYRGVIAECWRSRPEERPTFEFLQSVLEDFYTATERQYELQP
# [5] = target: protein kinases (human kinome) (Homo sapiens, UniProt Q07912); assay type: cell-based
# [6] = target: protein kinases (human kinome) (Homo sapiens, UniProt P35790); assay type: cell-based; conditions: CHKA P35790; experiment wp152
# [7] = target: protein kinases (human kinome) (Homo sapiens, UniProt P53671); assay type: cell-based; conditions: experiment wp152
# Sequence of protein kinases (human kinome) (Homo sapiens, UniProt P53671) (P53671 whole entry): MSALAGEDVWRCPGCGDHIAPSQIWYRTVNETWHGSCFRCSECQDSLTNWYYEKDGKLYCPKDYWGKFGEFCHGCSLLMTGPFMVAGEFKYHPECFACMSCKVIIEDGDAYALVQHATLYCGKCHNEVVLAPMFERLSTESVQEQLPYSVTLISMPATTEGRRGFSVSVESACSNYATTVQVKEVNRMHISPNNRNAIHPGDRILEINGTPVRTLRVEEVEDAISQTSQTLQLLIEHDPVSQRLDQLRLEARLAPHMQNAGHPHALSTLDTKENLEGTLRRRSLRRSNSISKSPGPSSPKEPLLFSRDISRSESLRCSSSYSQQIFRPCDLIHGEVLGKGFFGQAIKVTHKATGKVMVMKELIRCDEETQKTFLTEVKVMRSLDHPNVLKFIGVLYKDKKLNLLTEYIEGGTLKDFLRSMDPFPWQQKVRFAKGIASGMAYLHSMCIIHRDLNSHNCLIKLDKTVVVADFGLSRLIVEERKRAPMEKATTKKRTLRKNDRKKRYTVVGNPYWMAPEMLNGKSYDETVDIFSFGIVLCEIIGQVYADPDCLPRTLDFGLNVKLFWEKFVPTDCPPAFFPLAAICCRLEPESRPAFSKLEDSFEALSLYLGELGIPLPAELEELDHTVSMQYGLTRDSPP
# [8] = system: protein kinases (human kinome); assay type: cell-based
# [9] = target: protein kinases (human kinome) (Homo sapiens, UniProt O43683); assay type: cell-based; conditions: for logFC: BUB1 (O43683); for logFC BUB1 (O43683): direction down
# Sequence of protein kinases (human kinome) (Homo sapiens, UniProt O43683) (O43683 whole entry): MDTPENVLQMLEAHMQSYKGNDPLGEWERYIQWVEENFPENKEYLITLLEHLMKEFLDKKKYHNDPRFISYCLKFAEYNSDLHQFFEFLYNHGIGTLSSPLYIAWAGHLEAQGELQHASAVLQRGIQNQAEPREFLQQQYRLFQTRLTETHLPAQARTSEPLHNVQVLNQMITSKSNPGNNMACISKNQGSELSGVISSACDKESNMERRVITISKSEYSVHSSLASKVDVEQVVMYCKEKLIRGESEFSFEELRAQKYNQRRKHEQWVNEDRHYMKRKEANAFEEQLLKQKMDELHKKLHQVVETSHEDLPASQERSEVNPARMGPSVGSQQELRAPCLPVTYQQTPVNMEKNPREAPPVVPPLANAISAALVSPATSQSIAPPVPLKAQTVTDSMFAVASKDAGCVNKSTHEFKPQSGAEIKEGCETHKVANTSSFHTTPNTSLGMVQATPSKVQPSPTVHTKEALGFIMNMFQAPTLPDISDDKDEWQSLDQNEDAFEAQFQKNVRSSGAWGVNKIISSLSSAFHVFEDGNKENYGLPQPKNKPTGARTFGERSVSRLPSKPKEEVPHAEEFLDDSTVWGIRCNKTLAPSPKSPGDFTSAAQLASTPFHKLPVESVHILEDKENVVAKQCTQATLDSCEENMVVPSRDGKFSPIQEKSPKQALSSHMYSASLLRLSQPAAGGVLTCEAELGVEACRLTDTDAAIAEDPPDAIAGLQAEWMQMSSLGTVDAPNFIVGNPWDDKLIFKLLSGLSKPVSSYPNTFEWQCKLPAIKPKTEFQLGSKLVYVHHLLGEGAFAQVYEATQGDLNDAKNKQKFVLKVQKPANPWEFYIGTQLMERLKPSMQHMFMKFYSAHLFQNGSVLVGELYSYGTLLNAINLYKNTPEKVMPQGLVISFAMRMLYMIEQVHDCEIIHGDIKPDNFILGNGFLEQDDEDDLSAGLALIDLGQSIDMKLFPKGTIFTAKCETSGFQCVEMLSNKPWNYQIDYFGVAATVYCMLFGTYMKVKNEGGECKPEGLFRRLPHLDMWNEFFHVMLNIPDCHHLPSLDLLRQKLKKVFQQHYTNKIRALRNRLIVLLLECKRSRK
# [10] = target: T2, protein kinases (human kinome) (Homo sapiens, UniProt P42680); assay type: cell-based; conditions: TEC (P42680), experiment wp134
# T2 sequence (P42680 1-631): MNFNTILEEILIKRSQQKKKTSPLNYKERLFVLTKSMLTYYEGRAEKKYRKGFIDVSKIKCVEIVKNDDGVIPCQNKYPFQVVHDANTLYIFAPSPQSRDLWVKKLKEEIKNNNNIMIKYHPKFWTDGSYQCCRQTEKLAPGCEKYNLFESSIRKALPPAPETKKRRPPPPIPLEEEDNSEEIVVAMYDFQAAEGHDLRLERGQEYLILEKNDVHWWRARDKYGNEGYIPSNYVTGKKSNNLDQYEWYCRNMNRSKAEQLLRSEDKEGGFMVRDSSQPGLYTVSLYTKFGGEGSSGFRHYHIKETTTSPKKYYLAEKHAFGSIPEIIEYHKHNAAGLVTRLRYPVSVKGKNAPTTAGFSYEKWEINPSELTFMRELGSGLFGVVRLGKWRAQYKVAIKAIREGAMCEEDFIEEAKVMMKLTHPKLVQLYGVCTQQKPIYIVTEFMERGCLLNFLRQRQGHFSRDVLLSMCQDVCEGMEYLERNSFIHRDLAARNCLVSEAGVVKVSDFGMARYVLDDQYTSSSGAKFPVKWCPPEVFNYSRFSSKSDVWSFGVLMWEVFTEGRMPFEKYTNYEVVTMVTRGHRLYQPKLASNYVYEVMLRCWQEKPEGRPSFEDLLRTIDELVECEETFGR
# [11] = target: T3, protein kinases (human kinome) (Homo sapiens, UniProt Q8TAS1); assay type: cell-based; conditions: experiment wp134
# T3 sequence (Q8TAS1 1-419): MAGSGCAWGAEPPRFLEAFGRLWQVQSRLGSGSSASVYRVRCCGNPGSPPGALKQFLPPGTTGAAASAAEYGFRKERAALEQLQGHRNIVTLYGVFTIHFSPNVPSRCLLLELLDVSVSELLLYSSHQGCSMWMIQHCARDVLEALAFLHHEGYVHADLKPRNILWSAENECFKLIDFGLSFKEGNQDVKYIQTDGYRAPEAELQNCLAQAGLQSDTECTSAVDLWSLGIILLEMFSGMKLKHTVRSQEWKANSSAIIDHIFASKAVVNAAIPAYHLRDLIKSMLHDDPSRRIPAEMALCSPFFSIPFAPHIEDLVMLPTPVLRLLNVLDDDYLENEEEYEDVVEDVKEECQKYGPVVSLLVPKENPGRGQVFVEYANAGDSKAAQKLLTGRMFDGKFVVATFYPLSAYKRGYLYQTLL
# [12] = target: extended human kinome (kinase-like proteins) (Homo sapiens, UniProt Q16875); experiment: Whole cell quantitative proteomics: extended kinome hits; conditions: Accession Q16875; experiment wp134
# Sequence of extended human kinome (kinase-like proteins) (Homo sapiens, UniProt Q16875) (Q16875 whole entry): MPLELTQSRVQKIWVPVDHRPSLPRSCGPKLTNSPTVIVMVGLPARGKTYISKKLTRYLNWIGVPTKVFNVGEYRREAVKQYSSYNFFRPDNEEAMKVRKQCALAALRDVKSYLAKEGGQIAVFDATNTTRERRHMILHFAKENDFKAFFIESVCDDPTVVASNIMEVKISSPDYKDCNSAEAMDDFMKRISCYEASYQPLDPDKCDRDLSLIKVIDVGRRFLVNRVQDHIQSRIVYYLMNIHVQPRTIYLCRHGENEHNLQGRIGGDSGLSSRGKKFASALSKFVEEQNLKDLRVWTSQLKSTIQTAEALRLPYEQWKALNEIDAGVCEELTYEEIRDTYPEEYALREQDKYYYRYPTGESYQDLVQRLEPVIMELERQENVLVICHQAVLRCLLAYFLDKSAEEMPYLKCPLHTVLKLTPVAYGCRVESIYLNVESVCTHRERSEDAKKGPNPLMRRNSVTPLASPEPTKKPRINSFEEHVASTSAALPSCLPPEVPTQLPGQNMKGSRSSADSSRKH
# [13] = target: protein kinases (human kinome) (Homo sapiens, UniProt P31749); assay type: cell-based; conditions: for logFC: AKT1 (P31749)
# Sequence of protein kinases (human kinome) (Homo sapiens, UniProt P31749) (P31749 whole entry): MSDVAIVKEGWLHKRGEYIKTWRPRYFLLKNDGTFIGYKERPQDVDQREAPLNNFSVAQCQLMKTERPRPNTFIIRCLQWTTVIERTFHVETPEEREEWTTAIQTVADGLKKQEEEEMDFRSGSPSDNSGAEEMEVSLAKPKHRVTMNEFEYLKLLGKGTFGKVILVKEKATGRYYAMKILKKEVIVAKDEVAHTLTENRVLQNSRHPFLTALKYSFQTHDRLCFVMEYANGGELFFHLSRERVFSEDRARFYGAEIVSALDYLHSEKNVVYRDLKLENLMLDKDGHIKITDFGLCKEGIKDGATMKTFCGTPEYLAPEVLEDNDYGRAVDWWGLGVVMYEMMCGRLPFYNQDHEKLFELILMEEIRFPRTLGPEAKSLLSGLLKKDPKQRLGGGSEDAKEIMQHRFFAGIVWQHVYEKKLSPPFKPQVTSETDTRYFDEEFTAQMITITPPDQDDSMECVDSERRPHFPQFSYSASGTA
# [14] = target: protein kinases (human kinome) (Homo sapiens, UniProt Q15118); assay type: cell-based; conditions: PDK1 Q15118; experiment wp137
# Sequence of protein kinases (human kinome) (Homo sapiens, UniProt Q15118) (Q15118 29-436): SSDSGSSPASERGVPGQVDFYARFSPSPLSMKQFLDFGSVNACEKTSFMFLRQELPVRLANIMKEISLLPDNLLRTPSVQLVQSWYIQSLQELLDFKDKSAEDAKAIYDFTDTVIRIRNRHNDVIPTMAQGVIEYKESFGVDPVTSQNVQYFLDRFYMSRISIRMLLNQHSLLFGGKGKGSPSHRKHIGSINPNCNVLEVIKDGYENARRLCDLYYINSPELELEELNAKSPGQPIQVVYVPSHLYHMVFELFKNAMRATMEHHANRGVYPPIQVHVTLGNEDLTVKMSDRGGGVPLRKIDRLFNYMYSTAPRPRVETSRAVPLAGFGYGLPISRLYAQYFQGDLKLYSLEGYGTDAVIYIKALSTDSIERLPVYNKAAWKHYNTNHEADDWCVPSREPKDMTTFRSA
# [15] = target: protein kinases (human kinome) (Homo sapiens, UniProt P31751); assay type: cell-based; conditions: AKT2 (P31751)
# Sequence of protein kinases (human kinome) (Homo sapiens, UniProt P31751) (P31751 whole entry): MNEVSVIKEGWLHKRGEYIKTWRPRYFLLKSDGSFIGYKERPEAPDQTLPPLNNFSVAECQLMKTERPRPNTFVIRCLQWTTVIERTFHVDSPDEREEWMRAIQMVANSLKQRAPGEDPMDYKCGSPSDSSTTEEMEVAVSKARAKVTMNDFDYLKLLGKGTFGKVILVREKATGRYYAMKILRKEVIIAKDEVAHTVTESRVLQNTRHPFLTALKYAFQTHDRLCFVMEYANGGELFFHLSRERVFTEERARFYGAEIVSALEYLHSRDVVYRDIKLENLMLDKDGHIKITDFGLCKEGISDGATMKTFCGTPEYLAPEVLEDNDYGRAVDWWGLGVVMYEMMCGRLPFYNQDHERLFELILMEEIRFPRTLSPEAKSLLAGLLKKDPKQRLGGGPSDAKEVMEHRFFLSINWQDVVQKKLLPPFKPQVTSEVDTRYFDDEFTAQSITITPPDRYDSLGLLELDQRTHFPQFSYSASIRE
# [16] = target: protein kinases (human kinome) (Homo sapiens, UniProt O14874); assay type: cell-based; conditions: BCKDK (O14874), experiment wp137
# [17] = target: protein kinases (human kinome) (Homo sapiens, UniProt Q9Y243); assay type: cell-based; conditions: AKT3 (Q9Y243-1)
# Sequence of protein kinases (human kinome) (Homo sapiens, UniProt Q9Y243) (Q9Y243 whole entry): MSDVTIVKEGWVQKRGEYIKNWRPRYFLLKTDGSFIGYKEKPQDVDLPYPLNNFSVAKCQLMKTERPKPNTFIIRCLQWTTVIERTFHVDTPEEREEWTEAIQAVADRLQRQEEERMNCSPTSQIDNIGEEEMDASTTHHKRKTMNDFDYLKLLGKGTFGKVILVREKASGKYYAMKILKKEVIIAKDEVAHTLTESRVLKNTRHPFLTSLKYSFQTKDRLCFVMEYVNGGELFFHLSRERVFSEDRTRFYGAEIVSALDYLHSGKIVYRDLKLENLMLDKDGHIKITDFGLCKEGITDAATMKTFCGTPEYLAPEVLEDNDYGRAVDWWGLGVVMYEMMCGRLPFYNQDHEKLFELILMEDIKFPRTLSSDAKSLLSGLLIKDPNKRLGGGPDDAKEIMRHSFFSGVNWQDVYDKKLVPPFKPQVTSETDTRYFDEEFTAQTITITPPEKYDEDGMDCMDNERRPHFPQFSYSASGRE
# [18] = target: T4, extended human kinome (kinase-like proteins) (Homo sapiens, UniProt Q7L8L6); experiment: Whole cell quantitative proteomics: extended kinome hits; conditions: Accession Q7L8L6; experiment wp137
# T4 sequence (Q7L8L6 28-764): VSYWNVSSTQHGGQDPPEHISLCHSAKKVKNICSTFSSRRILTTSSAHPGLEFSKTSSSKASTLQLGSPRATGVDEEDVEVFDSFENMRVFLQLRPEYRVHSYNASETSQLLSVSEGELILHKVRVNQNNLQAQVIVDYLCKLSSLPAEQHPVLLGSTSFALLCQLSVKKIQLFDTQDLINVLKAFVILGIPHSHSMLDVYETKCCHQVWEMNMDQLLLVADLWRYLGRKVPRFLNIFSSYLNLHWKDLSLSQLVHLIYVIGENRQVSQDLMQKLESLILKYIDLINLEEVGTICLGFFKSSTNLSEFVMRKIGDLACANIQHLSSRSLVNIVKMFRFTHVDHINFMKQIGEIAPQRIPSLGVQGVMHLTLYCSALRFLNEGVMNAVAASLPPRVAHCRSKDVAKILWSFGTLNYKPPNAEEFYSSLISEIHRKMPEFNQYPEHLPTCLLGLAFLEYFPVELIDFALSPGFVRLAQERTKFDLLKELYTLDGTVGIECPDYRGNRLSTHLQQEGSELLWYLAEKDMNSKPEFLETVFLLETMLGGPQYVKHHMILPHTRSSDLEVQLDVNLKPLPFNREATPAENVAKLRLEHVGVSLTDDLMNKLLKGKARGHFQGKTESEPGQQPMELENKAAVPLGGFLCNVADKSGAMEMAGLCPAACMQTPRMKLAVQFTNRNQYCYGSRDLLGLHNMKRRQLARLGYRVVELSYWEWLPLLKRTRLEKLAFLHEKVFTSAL
# [19] = target: T5, extended human kinome (kinase-like proteins) (Homo sapiens, UniProt Q9UHH9); experiment: as above; conditions: Accession Q9UHH9
# T5 sequence (Q9UHH9 1-426): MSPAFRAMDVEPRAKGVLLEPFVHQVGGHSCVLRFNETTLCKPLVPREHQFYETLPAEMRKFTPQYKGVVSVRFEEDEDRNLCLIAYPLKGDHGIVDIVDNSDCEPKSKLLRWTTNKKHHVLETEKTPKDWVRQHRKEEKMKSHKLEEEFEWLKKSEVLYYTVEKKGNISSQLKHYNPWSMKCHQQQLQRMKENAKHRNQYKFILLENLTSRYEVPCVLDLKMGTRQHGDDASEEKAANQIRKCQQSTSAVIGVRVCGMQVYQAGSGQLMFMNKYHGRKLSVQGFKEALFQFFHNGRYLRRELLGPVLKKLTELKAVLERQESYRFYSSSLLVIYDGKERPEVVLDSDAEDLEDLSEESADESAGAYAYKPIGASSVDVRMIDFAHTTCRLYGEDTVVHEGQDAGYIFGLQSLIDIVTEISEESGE
# [20] = target: extended human kinome (kinase-like proteins) (Homo sapiens, UniProt P27144); experiment: as above; conditions: experiment wp137
# [21] = experiment wp104, direction down
# [22] = experiment wp137, direction down
# [23] = experiment wp135, 8 hr, direction down
# Sequence of protein kinases (human kinome) (Homo sapiens, UniProt P11802) (P11802 whole entry): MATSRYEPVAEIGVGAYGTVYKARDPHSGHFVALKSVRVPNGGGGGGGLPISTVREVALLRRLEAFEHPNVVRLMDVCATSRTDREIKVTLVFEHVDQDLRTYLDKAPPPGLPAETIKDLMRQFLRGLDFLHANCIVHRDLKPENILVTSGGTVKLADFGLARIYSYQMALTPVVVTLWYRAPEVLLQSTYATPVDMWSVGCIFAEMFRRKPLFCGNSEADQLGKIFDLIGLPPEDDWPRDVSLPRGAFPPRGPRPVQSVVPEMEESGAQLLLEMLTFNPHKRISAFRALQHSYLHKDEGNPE
smiles,measurement,setting,value
CN[C@@H](C)C(=O)N[C@H](C(=O)N1CCC[C@H]1c1nc(C(=O)c2cccc(OCCCCCn3cc(CN4CCN(c5ccc(Nc6ncc7c(n6)N(C)C(=O)N(c6cc(NC(=O)c8cccc(C(F)(F)F)c8)ccc6C)C7)cn5)CC4)nn3)c2)cs1)C1CCCCC1 [DB118430],logFC CDK4 (P11802),[1]; experiment wp152,−0.3644
same,logFC,[2]; experiment wp134,−0.3497
same,logFC STK17A,[2]; experiment wp134,−0.3497
same,logFC of SIK2,[3]; Accession Q9H0K1,−0.3803
same,logFC SIK2 (Q9H0K1),[3]; direction of change down,−0.3803
same,logFC BLK,[4]; experiment wp134,−0.5826
same,logFC BLK,[4]; experiment wp152,−0.9023
same,logFC of BLK (P51451),[4]; Experiment wp134,−0.5826
same,logFC of BLK (P51451),[4]; Experiment wp152,−0.9023
same,logFC TNK2 (Q07912-1),"[5]; Experiment wp134, direction down",−0.575
same,logFC TNK2,"[5]; TNK2 (Q07912-1), experiment wp134",−0.575
same,logFC,[6],−0.3601
same,logFC LIMK2,"[7]; LIMK2 (P53671), down",−0.4571
same,logFC of LIMK2,[7]; LIMK2 P53671,−0.4571
same,kinases the bifunctional compound degrades,[8]; as stated for the structure in the embodiments,"BLK, BUB1, CDK4, LIMK2, SIK2, STK17A, TEC, TNK2, and UHMK1"
same,Kinase hits,"[8]; kinases significantly downregulated vs DMSO (fold change cutoff −1.25, P-value<0.01), ≤8 h, 0.1-5 μM degrader, 7 cell lines","BLK, BUB1, CDK4, LIMK2, SIK2, STK17A, TEC, TNK2, UHMK1"
same,Total no. kinase hits,[8]; number of degraded kinases per library compound,9
same,logFC,[9]; experiment wp134,−0.3866
same,logFC,[9]; experiment wp152,−0.3814
same,logFC BUB1 (O43683),[9]; Experiment wp134,−0.3866
same,logFC BUB1 (O43683),[9]; Experiment wp152,−0.3814
same,logFC,[10],−0.5666
same,logFC,[10]; direction down,−0.5666
same,logFC UHMK1,"[11]; Accession Q8TAS1, direction down",−0.4944
same,logFC UHMK1,[11]; UHMK1 (Q8TAS1),−0.4944
same,logFC PFKFB3,[12],−0.4616
C[C@@H]1C[C@@H](O)c2ncnc(N3CCN(C(=O)[C@H](CNCCCCCCCCNC(=O)COc4cccc5c4C(=O)N(C4CCC(=O)NC4=O)C5=O)c4ccc(Cl)cc4)CC3)c21 (stereo partly drawn) [INY.02.164],logFC,[13]; experiment wp104,−0.7926
same,logFC,[13]; experiment wp137,−3.206
same,logFC of AKT1 (P31749),[13]; Experiment wp104,−0.7926
same,logFC of AKT1 (P31749),[13]; experiment wp137,−3.206
same,logFC,[14],−0.4419
same,logFC PDK1,[14],−0.4419
same,logFC,[15]; experiment wp104,−1.078
same,logFC,[15]; [21],−1.078
same,logFC,[15]; experiment wp137,−3.156
same,logFC,[15]; [22],−3.156
same,logFC,[16],−0.36
same,logFC,[16]; direction down,−0.36
same,logFC,[17]; experiment wp104,−1.478
same,logFC,[17]; [21],−1.478
same,logFC,[17]; experiment wp137,−3.147
same,logFC,[17]; [22],−3.147
same,logFC FASTKD5,[18],−0.3422
same,logFC IP6K2,[19]; experiment wp137,−0.5449
same,logFC AK4 (P27144),[20],−0.5601
C[C@@H]1C[C@@H](O)c2ncnc(N3CCN(C(=O)[C@H](CNCCCCCCCCCCc4cccc5c4C(=O)N(C4CCC(=O)NC4=O)C5=O)c4ccc(Cl)cc4)CC3)c21 (stereo partly drawn) [INY.03.041_01],logFC,"[13]; experiment wp135, 8 hr",−2.273
same,logFC of AKT1 (P31749),"[13]; experiment wp135, 8 hr",−2.273
same,logFC CDK4 (P11802),"[1]; experiment wp135, 8 hr",−0.3281
same,logFC,"[2]; experiment wp135, 8 hr",−0.497
same,logFC,"[15]; experiment wp135, 8 hr",−2.274
same,logFC,[15]; [23],−2.274
same,logFC,"[17]; experiment wp135, 8 hr",−2.215
same,logFC,[17]; [23],−2.215
same,logFC IP6K2,"[19]; experiment wp135, 8 hr",−0.6456
